Source: publication PMC8369502, “High-Throughput Drug Screening System Based on Human Induced Pluripotent Stem Cell-Derived Atrial Myocytes ∼ A Novel Platform to Detect Cardiac Toxicity for Atrial Arrhythmias” (Frontiers in Pharmacology, 2021)
Where “and” joins values, the source holds several entries; their conditions need not be identical. Equal entries are not always repeated. Entries after “also recorded” stand apart in the source; their conditions may differ. Where two headings read alike, the source gives them in different places.

What was measured:
Format in all cases: cell-based, human
[1] = test system: CT (control hiPS-CMs without RA, ventricular-like); test: High-throughput membrane potential recording (FluoVolt, FDSS/μCell) in CT; settings: for Falling Slope / PWD30cF / PWD80cF / Rising Slope: % change from value before compound addition, 10 min after addition (Bay K 8644: 3 min); for beating rate (in words) / falling slope of membrane potential (in words) / rising slope of membrane potential (in words): concentration range as stated in the source
Experimental: (§1) Using a high-throughput screening system (FDSS/μCell), we assessed the drug toxicity of several experimental drugs on hiPS-derived atrial myocytes as well as control hiPS-derived cardiomyocytes. Membrane potential was used as one of the parameters during the assessment.
(§2) After purification, hiPS-derived cardiomyocytes were plated in 96-well plates for downstream drug response assessment using FluoVolt™ Membrane Potential Kit. […] The comparison of variance in the response of drug administration in CT and AM was represented by the percentage of changes based on their baseline values respectively.
(§3) FluoVolt™ Membrane Potential Kit (ThermoFisher […], F10488, Massachusetts, United States) was used to measure membrane potentials. The basic procedure was performed in accordance with the manufacturer’s instructions. […] MP were recorded at excitation and emission stages at wavelengths of 470 and 540 nm, respectively. […] Stock solutions of the test compounds were prepared in 100% DMSO, and serially diluted 1/40 into compound plates for testing (0.5% DMSO was the maximum concentration in all wells). The compounds were automatically pipetted from the compound plate, and 12 μL was loaded in the wells already containing the cells with 48 μL of media. Recording data were analyzed using Waveform Analysis of Cardiomyocyte Software (Ver.1.2.1J, Hamamatsu Photonics K.K.). Data values for a well were averaged from waveforms that arose during 30 s. The beat rate (BR; beats per minute), waveform amplitude (AMP), and duration at 30, 50, and 80% of decay (PWD30, PWD 50, and PWD 80, respectively) were used as evaluation parameters. PWDs were corrected using the Fridericia formula. PWD30-80 was calculated as the difference between PWD80 and PWD30. Each parameter was calculated as percentage change (%) from the value before test compound addition.

[2] = test system: AM (RA-treated hiPS-CMs, atrial-like); test: High-throughput membrane potential recording (FluoVolt, FDSS/μCell) in AM; settings: for cessation of beating (samples): 0.1 μM doses; for Beat Rate / PWD30cF / Falling Slope / PWD80cF / Rising Slope: % change from value before compound addition, 10 min after addition (Bay K 8644: 3 min); for arrest of spontaneous beating (samples): at the maximal concentration; for beating rate (in words) / falling slope of membrane potential (in words) / rising slope of membrane potential (in words): concentration range as stated in the source
Experimental: as §1, §2, §3

[3] = test system: hiPS-derived cardiomyocytes; test: Cardiac differentiation of hiPSCs with RA, immunostaining (cTnT, MLC-2a, MLC-2v)
Experimental: Undifferentiated hiPSCs were maintained in AK02 medium for 2–3 days until 80% confluency was obtained. To obtain highly purified cardiomyocytes, metabolic selection was performed during post-differentiation, from day 15–26. Cardiomyocyte proportion was quantified by immunostaining with cardiac troponin-T (cTnT).
To further evaluate the gene expression of cardiac subtypes in the control hiPS-CMs (CT) and the RA-treated hiPS-CMs (AM), the cells were co-stained with myosin light chain 2a (MLC-2a: atrial isoform) and myosin light chain 2v (MLC-2v: ventricular isoform) (Supplementary Figure 1). […] In AM (MLC-2a 83.4 ± 0.63%), most cTnT-positive cells were co-positive for MLC-2a, however, very few cTnT-positive cells were found co-positive for MLC-2v (MLC-2v 14.0 ± 2.82%) (Figures 1B, C).
The hiPSCs were enzymatically dispersed and maintained until 80% confluence with StemFit® AK02N containing 10 µM Y-27632 (Wako, 036-24023). The next day, the culture medium was changed to StemFit® AK02N without Y-27632, which was maintained until the next passage. hiPSCs were seeded on a dish coated with Geltrex LDEV-Free Reduced Growth Factor (ThermoFisher […]) at 1% concentration in PBS. When the seeded cells reached 80% confluency (day-1), the culture medium was changed to StemFit® AK02N containing Matrigel® (Growth Factor Reduced, Corning, 354,230) at 1% concentration for 24 h. On day0, the culture medium was changed to Medium A (PSC Cardiomyocyte Differentiation Kit, ThermoFisher […]) containing Matrigel for 48 h. On day2, the culture medium was changed to Medium B (PSC Cardiomyocyte Differentiation Kit, ThermoFisher […]) for 48 h. On day4, the culture medium was changed to cardiomyocyte maintenance medium (PSC Cardiomyocyte Differentiation Kit, ThermoFisher […]) supplemented with or without 0.7 μM RA (Sigma Aldrich, R2625) for 72 h. On day 7, the culture medium was changed to cardiomyocyte maintenance medium, and change the medium every 2 days. The cells typically started spontaneous beating around 10 days of initiation of the differentiation protocol. Purification of cardiomyocytes was performed by using a non-glucose medium supplemented with 4 mM lactic acid for 4days/time, performed 2 times (from day 14 to day 18, and from day 21 to day 25), between the 2 times of purifying application, the medium was changed to cardiomyocyte maintenance medium for 72 h (from day 18 to day 21). After purification, the culture was continued in the cardiomyocyte maintenance medium until the functional analysis.
hiPSC-derived cardiomyocytes were fixed with 4% PFA and permeabilized with 0.1% Triton-X in PBS (-) for 15 min at 4°C. […] Fluorescence images were obtained using Operetta high content imaging system (PerkinElmer, Japan) and analyzed using Harmony analysis software (PerkinElmer, Japan).

Structure (SMILES) | membrane potential duration (in words) [1] | Falling Slope [1] | PWD30cF [1] | PWD80cF [1] | beating rate (in words) [1] | falling slope of membrane potential (in words) [1] | Beat Rate [2] | PWD30cF [2] | beating rate (in words) [2] | Rising Slope [1] | rising slope of membrane potential (in words) [1] | Falling Slope [2] | PWD80cF [2] | Rising Slope [2] | falling slope of membrane potential (in words) [2] | rising slope of membrane potential (in words) [2] | membrane potential duration (in words) [2] | also measured
COc1ccc([C@@H]2Sc3ccccc3N(CCN(C)C)C(=O)[C@@H]2OC(C)=O)cc1 [Diltiazem] | decreased | ↑ | ↓ | ↓ | dose-dependent increases | dose-dependent increases | ↑ | ↓ | dose-dependent increase | – | – | – | – | – | – | – | – | other parameters of membrane potential (in words) [2]: no obvious changes were observed; cessation of beating (samples) [2]: all the AM samples; incidence of arrhythmia-like waveforms: arrest ([2]; 1 μM): 100%; arrest of spontaneous beating (samples) [2]: all the tested samples
CC(C)NCC(O)COc1cccc2ccccc12 (centres unmarked) [Propranolol] | – | ↓ | ↓ | ↑ | dose-dependent decrease | dose-dependent decrease | ↓ | – | dose-dependent decrease | ↓ | dose-dependent decrease | ↓ | ↑ | ↓ | dose-dependent decrease | dose-dependent decrease | – | PWD30-80 (in words) [1]: prolonged; PWD80cF (in words) [1]: prolonged; concentration at which irregular beating or EAD appeared [1]: above 10 μM; incidence of arrhythmia-like waveforms: EAD ([1]; 10 μM): 25%; incidence of arrhythmia-like waveforms: irregular beat ([1]; 10 μM): 17%; incidence of arrhythmia-like waveforms: EAD ([1]; 30 μM): 42%; incidence of arrhythmia-like waveforms: arrest ([1]; 30 μM): 17%; incidence of arrhythmia-like waveforms: irregular beat ([1]; 30 μM): 8%; incidence of arrhythmia-like waveforms: arrest ([1]; 100 μM): 100%; PWD30-80 (in words) [2]: prolonged; PWD80cF (in words) [2]: prolonged; incidence of arrhythmia-like waveforms: irregular beat ([2]; 10 μM): 11%; irregular beating (samples) ([2]; 10 μM, count of samples): 1 out of 9; incidence of arrhythmia-like waveforms: arrest ([2]; 30 μM): 100%; incidence of arrhythmia-like waveforms: arrest ([2]; 100 μM): 100%
C[N+](C)(C)CCOC(N)=O [Carbachol] | – | – | – | – | – | – | ↓ | – | decrease | – | – | – | – | ↓ | – | decrease | – | EAD / irregular beating (in words) [1]: No irregular beating or EAD was elicited; response of membrane potential parameters (in words) [1]: no significant difference was observed; EAD / irregular beating (in words) [2]: No irregular beating or EAD was elicited; EAD / irregular beating (in words) ([2]; listed as carbachol): caused irregular beats early after application
Nc1ccncc1 [4-Aminopridine, 4-Aminopyridine] | – | – | ↑ | – | – | – | – | ↑ | – | – | – | – | ↑ | – | – | – | – | PWD30cF (in words) ([2]; listed as 4-AP): dose-dependent increases; PWD50cF (in words) ([2]; listed as 4-AP): dose-dependent increases; PWD30cF (in words) ([2]; listed as 4AP): prolongation; PWD50cF (in words) ([2]; listed as 4AP): prolongation
COC(=O)C1=C(C)NC(C)=C([N+](=O)[O-])C1c1ccccc1C(F)(F)F (centres unmarked) [Bay K 8644] | prolonged | ↓ | ↑ | ↑ | – | dose-dependent decrease | – | ↑ | – | – | – | ↓ | ↑ | ↑ | dose-dependent decrease | – | prolonged | PWD30cF (in words) [1]: prolonged; PWD30cF (in words) ([1]; listed as Bay K8644): prolonged significantly; PWD30cF (in words) [2]: prolonged; PWD30cF (in words) ([2]; listed as Bay K8644): prolonged significantly
COc1ccc(CCN(C)CCCC(C#N)(c2ccc(OC)c(OC)c2)C(C)C)cc1OC (centres unmarked) [Verapamil] | decreased | ↑ | ↓ | ↓ | dose-dependent increases | dose-dependent increases | ↑ | – | dose-dependent increase | ↓ | – | – | – | – | – | – | – | other parameters of membrane potential (in words) [2]: no obvious changes were observed; incidence of arrhythmia-like waveforms: arrest ([2]; 0.1 μM): 100%; cessation of beating (samples) [2]: all the AM samples; arrest of spontaneous beating (samples) [2]: all the tested samples
CCS(=O)(=O)N(C)[C@H]1c2cc(C#N)ccc2OC(C)(C)[C@@H]1O (racemic) [Chromanol 293B] | increase | ↓ | ↑ | ↑ | – | – | – | ↑ | – | ↓ | dose-dependent decrease | – | – | ↓ | – | dose-dependent decrease | increase | –
Cc1cccc(CCN2CCC(C(=O)c3ccc(NS(C)(=O)=O)cc3)CC2)n1 [E-4031] | increase | ↓ | ↓ | ↑ | dose-dependent decrease | dose-dependent decrease | ↓ | – | dose-dependent decrease | ↓ | dose-dependent decrease | ↓ | ↑ | ↓ | dose-dependent decrease | dose-dependent decrease | increase | PWD30-80 (in words) [1]: prolonged; also recorded: dose-dependent increases; PWD80cF (in words) [1]: prolonged; also recorded: dose-dependent increases; PWD30-80 (in words) [2]: prolonged; also recorded: dose-dependent increases; PWD80cF (in words) [2]: prolonged; also recorded: dose-dependent increases
CC1=C(/C=C/C(C)=C/C=C/C(C)=C/C(=O)O)C(C)(C)CCC1 [RA, retinoic acid] | – | – | – | – | – | – | – | – | – | – | – | – | – | – | – | – | – | MLC-2a positive cells ([3]; AM (RA-treated hiPS-CMs)): 83.4 ± 0.63%; MLC-2v positive cells ([3]; AM (RA-treated hiPS-CMs)): 14.0 ± 2.82%; proportion of cTnT-positive cells ([3]; AM (RA-treated hiPS-CMs), 0.7 μM RA day 4-7, n = 3): 96.79 ± 1.81% and 96.8 ± 1.81%; cardiomyocyte differentiation efficiency (in words) ([3]; with vs without RA): did not influence cardiomyocyte differentiation efficiency
